{"source": "patent US7438931B2", "about": "“Methods and compositions for the treatment of angiogenic diseases” (The Regents of The University of Michigan, priority 1998, dated 2008)", "key": {"[1]": {"details": "in vivo, iv; cited from earlier work"}, "[2]": {"system": "copper metabolism", "test": "Open label study of TM for initial treatment of Wilson's disease patients", "type": "in vivo, human", "from_the_text": "The inventors have carried out an open label study of the use of TM for initial treatment of neurologically presenting Wilson's disease patients for the past several years. The inventors have developed both a spectrophotometric and bioassay for the activity of the drug, to evaluate stability, and assure potency of the drug being administered (Brewer et al., 1991a; Brewer et al., 1994b). The drug slowly loses potency when exposed to air.\nThe inventors have now treated a total of 51 Wilson's disease patients with TM, all of whom presented with neurological or psychiatric disease, in an open label study. These patients were all diagnosed by standard criteria. […] Some of them were treated briefly with other agents prior to this trial. Two patients had psychiatric but not neurological symptoms.\nWith three exceptions in the earliest part of the study, all patients received a dose of 20 mg tid with meals, or qid with three meals and a snack. Thus, the only difference between a patient receiving 120 mg and 140 mg total dose is that the former was receiving 20 mg tid, or 60 mg, with meals, and the latter was receiving 20 mg qid, or 80 mg with meals plus a snack. The rest of the total daily dose was divided up into three equal doses and given between meals.\nTM impacts quickly and favorably on copper metabolism, reducing the potentially toxic copper of the blood and theoretically, the rest of the body. The primary clinical objective is to gain control over copper toxicity while not allowing clinical worsening. In other words, the prime objective is to protect all neurological function that is present at the time therapy is started. This was evaluated weekly by quantitative neurological and speech exams. Methodology and the neurology rating scale system have been published (Young et al., 1986). During the weeks of TM administration, during which copper metabolism is being controlled, neurological function as evaluated by quantitative neurological exam, is protected."}, "[3]": {"details": "among the seven anemia patients"}}}
{"substance": "tetrathiomolybdate [TM]", "values": [{"measurement": "excreted in feces", "setting": "[1]", "result": 5, "unit": "%"}, {"measurement": "excreted in urine", "setting": "[1]", "result": "over 90%"}, {"measurement": "t1/2 of slow plasma disappearance", "setting": "[1]", "result": "about 40 h"}, {"measurement": "cases of reversible anemia", "setting": "[2]; 45 patients treated eight weeks with TM as initial therapy", "result": 11.1, "unit": "%"}, {"measurement": "patients with reduction in platelet count", "setting": "[2]; [3]", "result": "Three"}, {"measurement": "patients with reduction in white blood cell count", "setting": "[2]; [3]", "result": "four"}, {"measurement": "patients with overtreatment", "setting": "[2]; dose of 180 mg/day or over", "result": "6 of 37"}, {"measurement": "patients with overtreatment", "setting": "[2]; dose of 150 or lower", "result": "1 of 13"}, {"measurement": "time to close the plasma copper-molybdenum gap (free copper reduced to zero)", "setting": "[2]; first patient, tid with meals 7 days, then also tid between meals", "result": 16, "unit": "days"}, {"measurement": "patients with elevation of transaminase values (serum AST and ALT)", "setting": "[2]; human, in vivo", "result": "four"}, {"measurement": "patients with reversible anemia/bone marrow depression", "setting": "[2]; human, in vivo", "result": "seven"}, {"measurement": "quantitative speech exam scores", "setting": "[2]; initial 8 weeks of TM therapy", "result": "No patient shows significant (more than 2.0 units) reduction in scores"}, {"measurement": "TCA soluble fraction of plasma copper", "setting": "[2]; late stages of TM therapy, starting value 27", "result": 15, "unit": "µg/dL"}, {"measurement": "fall in hemoglobin, average", "setting": "[2]; patients with anemia", "result": 3.4, "unit": "g %"}, {"measurement": "patients with neurological worsening (change of more than 5 units)", "setting": "[2]; weeks of TM administration, quantitative neurological exam", "result": "4 % of the sample"}]}
